Assay results as given in the supplement of paper PMC10307832.

How the values were obtained:
Test in all cases: relative viability (nuclei count vs DMSO), 5 days (fraction); higher = more cells survive
Bortezomib + Palbociclib = compound: CC(C)C[C@H](NC(=O)[C@H](Cc1ccccc1)NC(=O)c1cnccn1)B(O)O [Bortezomib] + CC(=O)c1c(C)c2cnc(Nc3ccc(N4CCNCC4)cn3)nc2n(C2CCCC2)c1=O [Palbociclib] (partner 0.5 µM)
Procedure, shortened: (§1)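 Each reported value is a median over duplicate plates. It expresses relative viability: treated-well nuclei count divided by vehicle-well nuclei count. Lung cancer cell lines in 1536-well plates were dosed by pin tool a day after seeding, alone with one drug or with a fixed anchor-drug dose plus five library-drug doses (not always all listed) in √10 steps, and nuclei were counted after 5 days.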

[1] = compound: CC1=CC(=NN1)NC2=CC(=NC(=N2)/C=C/C3=CC=CC=C3)N4CCN(CC4)C + C[C@@H](Oc1cc(-c2cnn(C3CCNCC3)c2)cnc1N)c1c(Cl)ccc(F)c1Cl [Crizotinib] (partner 1 µM)
Procedure, shortened: as §1

[2] = compound: CC1=CC(=NN1)NC2=CC(=NC(=N2)/C=C/C3=CC=CC=C3)N4CCN(CC4)C + C[C@]1(O)C[C@@H](c2nc(-c3ccc4ccc(-c5ccccc5)nc4c3)c3c(N)nccn32)C1 [Linsitinib] (partner 1 µM)
Procedure, shortened: as §1

Obatoclax + Palbociclib = compound: COC1=CC(c2cc3ccccc3[nH]2)=N/C1=C\c1[nH]c(C)cc1C [Obatoclax] + CC(=O)c1c(C)c2cnc(Nc3ccc(N4CCNCC4)cn3)nc2n(C2CCCC2)c1=O [Palbociclib] (partner 0.5 µM)
Procedure, shortened: as §1

Cell Line | relative viability (Bortezomib + Palbociclib; first compound 0.0002 µM) | relative viability (Bortezomib + Palbociclib; first compound 0.000632 µM) | relative viability (Bortezomib + Palbociclib; first compound 0.002 µM) | relative viability (Bortezomib + Palbociclib; first compound 0.006325 µM) | relative viability (Bortezomib + Palbociclib; first compound 0.02 µM) | relative viability ([1]; first compound 0.08 µM) | relative viability ([1]; first compound 0.253 µM) | relative viability ([1]; first compound 0.8 µM) | relative viability ([1]; first compound 2.53 µM) | relative viability ([1]; first compound 8 µM) | relative viability ([2]; first compound 0.08 µM) | relative viability ([2]; first compound 0.253 µM) | relative viability ([2]; first compound 0.8 µM) | relative viability ([2]; first compound 2.53 µM) | relative viability ([2]; first compound 8 µM) | relative viability (Obatoclax + Palbociclib; first compound 0.01 µM) | relative viability (Obatoclax + Palbociclib; first compound 0.03162 µM) | relative viability (Obatoclax + Palbociclib; first compound 0.1 µM) | relative viability (Obatoclax + Palbociclib; first compound 1 µM) | relative viability (Obatoclax + Palbociclib; first compound 0.3162 µM)
LK-2 | 0.649 | 0.685 | 0.415 | 0.125 | 0.133 | 0.193 | 0.221 | 0.208 | 0.262 | 0.203 | 0.522 | 0.876 | 0.75 | 0.31 | 0.104 | 0.661 | 0.728 | 0.764 | 0.825 | 
NCI-H522 | 0.932 | 0.982 | 1.1 | 0.35 | 0.343 |  |  |  |  |  |  |  |  |  |  | 1.05 | 1.04 | 1.03 | 0.892 | 1.02
NCI-H596 |  |  |  |  |  | 0.984 | 1.04 | 0.857 | 0.554 | 0.197 | 0.941 | 1.18 | 1.16 | 0.757 | 0.409 |  |  |  |  | 
NCI-H1299 |  |  |  |  |  | 0.951 | 0.938 | 0.938 | 0.442 | 0.222 | 0.986 | 0.967 | 1.03 | 0.754 | 0.295 |  |  |  |  | 
NCI-H1395 | 0.591 | 0.614 | 0.38 | 0.31 | 0.253 |  |  |  |  |  | 1 | 1.15 | 1.04 | 0.533 | 0.361 | 0.554 | 0.602 | 0.597 | 0.439 | 0.6
NCI-H1563 |  |  |  |  |  | 0.985 | 0.896 | 0.904 | 0.65 | 0.614 | 1.23 | 1.34 | 1.18 | 0.718 | 0.514 |  |  |  |  | 
NCI-H1648 | 0.208 | 0.296 | 0.258 | 0.261 | 0.275 |  |  |  |  |  |  |  |  |  |  | 0.303 | 0.258 | 0.28 | 0.246 | 0.275
NCI-H1650 | 0.342 | 0.312 | 0.136 | 0.117 | 0.146 | 1.07 | 1.05 | 0.63 | 0.192 | 0.109 |  |  |  |  |  | 0.344 | 0.407 | 0.316 | 0.145 | 0.24
NCI-H1703 |  |  |  |  |  | 0.636 | 0.597 | 0.339 | 0.101 | 0.0884 | 0.67 | 0.466 | 1.06 | 0.148 | 0.0677 |  |  |  |  | 
NCI-H1793 | 0.336 |  | 0.375 | 0.205 | 0.143 |  |  |  |  |  | 0.904 | 1.32 | 0.828 | 0.432 | 0.108 | 0.286 | 0.284 | 0.323 | 0.384 | 0.33
NCI-H2170 | 0.376 | 0.394 | 0.402 | 0.221 | 0.125 | 1.23 | 1.13 | 1.12 | 0.434 | 0.16 |  |  |  |  |  | 0.372 | 0.4 | 0.393 | 0.43 | 0.368
NCI-H2342 | 0.578 | 0.502 | 0.54 | 0.534 | 0.357 |  |  |  |  |  |  |  |  |  |  | 0.506 | 0.524 | 0.582 | 0.487 | 0.501
SW 900 | 0.504 | 0.37 | 0.203 | 0.2 | 0.195 |  |  |  |  |  |  |  |  |  |  | 0.619 | 0.543 | 0.605 | 0.363 | 0.475
